Data: patent US7247622B2, “Pharmaceutical compositions containing oxapenem-3-carboxylic acids” (Amura Limited, priority 2000, dated 2007)

Columns and labels:
[1] = Plasma blood levels in mice following subcutaneous administration; assay type: in vivo; details: for bioavailability: sub-cutaneous administration, compared with salts XOB and U
Method: The plasma blood levels in mice (mean of 3 per time point) of compositions XOB, YOB, PFOB and […] were measured at time points of 5, 10, 20 and 30 minutes following subcutaneous (SC) administration at a dose of 50 mg per kg. The results are shown in Table 2 and illustrated in FIG. 1.

C. freundii C2-con = experiment: MIC by agar dilution (NCCLS), de-repressed Class C β-lactamases; assay type: cell-based; details: unit assumed
Method: (§1) The assays to determine the Minimum Inhibitory Concentration (MIC) were performed by Agar dilution according to NCCLS guidelines (2000).

E. cloacae 84-CON = experiment: as above; assay type: cell-based; details: unit assumed
Method: as §1

E. cloacae Hennessy = experiment: as above; assay type: cell-based; details: unit assumed
Method: as §1

S marcescens S2-con = experiment: as above; assay type: cell-based; details: unit assumed
Method: as §1

E. coli ATCC 25922 = experiment: MIC by agar dilution (NCCLS), Class A β-lactamases; assay type: cell-based; details: CAZ alone or 2:1 ratio of ceftazidime with oxapenem, unit assumed
Method: as §1

E. coli TEM-10 = experiment: MIC by agar dilution (NCCLS), Class A β-lactamases; assay type: cell-based; details: CAZ alone or 2:1 ratio of ceftazidime with oxapenem, unit assumed
Method: as §1

E. coli TEM-1 = experiment: MIC by agar dilution (NCCLS), Class A β-lactamases; assay type: cell-based; details: CAZ alone or 2:1 ratio of ceftazidime with oxapenem, unit assumed
Method: as §1

E. coli TEM-3 = experiment: MIC by agar dilution (NCCLS), Class A β-lactamases; assay type: cell-based; details: CAZ alone or 2:1 ratio of ceftazidime with oxapenem, unit assumed
Method: as §1

E. coli TEM-6 = experiment: MIC by agar dilution (NCCLS), Class A β-lactamases; assay type: cell-based; details: CAZ alone or 2:1 ratio of ceftazidime with oxapenem, unit assumed
Method: as §1

E. coli TEM-9 = experiment: MIC by agar dilution (NCCLS), Class A β-lactamases; assay type: cell-based; details: CAZ alone or 2:1 ratio of ceftazidime with oxapenem, unit assumed
Method: as §1

E. cloacae P99 = experiment: MIC by agar dilution (NCCLS), de-repressed Class C β-lactamases; assay type: cell-based; details: unit assumed
Method: as §1

[2] = human serum; cited from earlier work
[3] = Chemical stability: half-life of hydrolysis in phosphate buffer by UV spectroscopy; assay type: physicochemical; details: 37° C., physiological phosphate buffer pH 7.4, 10^−4M oxapenem
Method: The half-lives of hydrolysis were determined at 37° C. in physiological phosphate buffer pH 7.4 by UV spectroscopy at 265 nm at a 10^−4M concentration of oxapenem

[4] = Stability in blood serum, determined microbiologically by agar diffusion test; assay type: in vitro ADME, bovine
Method: The blood serum stability was determined microbiologically using an agar diffusion test with Escherichia coli TEM 1 (penicillin resistant). The oxapenems were incubated with sterile bovine serum (OXOID) at 37° C. in 0.033% concentration.

[5] = CAZ alone or 1:1 ratio of ceftazidime with oxapenem
[6] = CAZ alone or 2:1 ratio of ceftazidime with oxapenem

Row | Structure (SMILES) | bioavailability [1] | MIC (C. freundii C2-con; [5]) [µg/mL] | MIC (C. freundii C2-con; [6]) [µg/mL] | MIC (E. cloacae 84-CON; [5]) [µg/mL] | MIC (E. cloacae 84-CON; [6]) [µg/mL] | MIC (E. cloacae Hennessy; [6]) [µg/mL] | MIC (S marcescens S2-con; [5]) [µg/mL] | MIC (E. coli ATCC 25922) [µg/mL] | MIC (E. coli TEM-1) [µg/mL] | in vivo biological half life [2] | further results
1 | C[C@@H](O)[C@H]1C(=O)N2C(C(=O)O)=C(C(C)(C)CCCN)O[C@H]12 [(5R,6R,1′R)-3-(4-amino-1,1-dimethylbutyl)-6-(1′-hydroxyethyl)-7-oxo-4-oxa-1-azabicyclo[3.2.0]hept-2-ene-2-carboxylic Acid] | remarkably superior bioavailability | 0.03 | 2 | 4 | 4 | 4 | 0.03 | – | – | – | concentration at 5 min ([1]; mouse, plasma, SC 50 mg per kg, 5 min, mean of 3, read-out: Conc. (mg/L) 5 min): 26.4 mg/L; concentration at 10 min ([1]; mouse, plasma, SC 50 mg per kg, 10 min, mean of 3, read-out: Conc. (mg/L) 10 min): 25.4 mg/L; concentration at 20 min ([1]; mouse, plasma, SC 50 mg per kg, 20 min, mean of 3, read-out: Conc. (mg/L) 20 min): 12.9 mg/L; concentration at 30 min ([1]; mouse, plasma, SC 50 mg per kg, 30 min, mean of 3, read-out: Conc. (mg/L) 30 min): 2.89 mg/L
2 | CC(C)(O/N=C(\C(=O)N[C@@H]1C(=O)N2C(C(=O)[O-])=C(C[n+]3ccccc3)CS[C@H]12)c1csc(N)n1)C(=O)O [CAZ, Ceftazidime] | – | 64 | 64 | > 64 | > 64 | > 64 | 1 | 0.25 | 0.25 | 1.7-2.1 hrs | MIC (E. coli TEM-10): > 64 µg/mL; MIC (E. coli TEM-3): 16 µg/mL; MIC (E. coli TEM-6): > 64 µg/mL; MIC (E. coli TEM-9): > 64 µg/mL; MIC (E. cloacae Hennessy; [5]): > 64 µg/mL; MIC (E. cloacae P99; [5]): 32 µg/mL; MIC (E. cloacae P99; [6]): 32 µg/mL; MIC (S marcescens S2-con; [6]): 1 µg/mL
3 | CO/N=C(\C(=O)N[C@@H]1C(=O)N2C(C(=O)O)=C(CSc3nc(=O)c(=O)[nH]n3C)CS[C@H]12)c1csc(N)n1 [Ceftriaxon] | – | – | – | – | – | – | – | – | – | 5.8-8.7 hrs | –
4 | O=C(O)[C@H]1/C(=C/CO)O[C@@H]2CC(=O)N21 [Clavulanate] | – | – | – | – | – | – | – | – | – | 0.7-1.4 hrs | –
5 | C[C@@H](O)[C@H]1C(=O)N2C(C(=O)O)=C(SCCN=CN)C[C@H]12 [Imipenem] | – | – | – | – | – | – | – | – | – | 0.9 hrs | –
6 | C[C@H](O)[C@H]1C(=O)N2C(C(=O)O)=C(C(C)(C)CCCN)O[C@H]12 [YOB, (5R,6R,1′S)-3-(4-amino-1,1-dimethylbutyl)-6-(1-hydroxyethyl)-7-oxo-4-oxa-1-azabicyclo[3.2.0]hept-2-ene-2-carboxylic Acid] | remarkably superior bioavailability | – | – | – | – | – | – | 0.03 | 0.06 | – | Conc. (mg/L) 5 min ([1]; plasma, SC 50 mg per kg, 5 min, mean of 3): 40.12 mg/L; Conc. (mg/L) 10 min ([1]; plasma, SC 50 mg per kg, 10 min, mean of 3): 44.88 mg/L; Conc. (mg/L) 20 min ([1]; plasma, SC 50 mg per kg, 20 min, mean of 3): 13.79 mg/L; Conc. (mg/L) 30 min ([1]; plasma, SC 50 mg per kg, 30 min, mean of 3): 10.4 mg/L; Half-live of hydrolysis [3]: 7.0 h; stability in blood serum ([4]; bovine serum, 37° C., compared to XOB): far more stable than XOB in blood serum; Serum half life at 37° C. ([4]; sterile bovine serum, 0.033% concentration): 2.4 h
